According to patent US12673930B2, “Thiophene HSD17B13 inhibitors and uses thereof” (INIPHARM, INC., priority 2020, dated 2026):

Columns and labels:
[1] = target: T1, HSD17B13 enzyme (Homo sapiens, UniProt Q7Z5P4); test: NADH detection assay (fluorescence based Leukotriene B3 (LTB3) assay) for HSD17B13 activity; type: biochemical; settings: substrate 25 μM LTB3, 3 mM NAD+, 125 nM HSD17B13 enzyme, 1 hour at 26.5° C
T1 construct: His; made in house; host or cells: E. coli
T1 sequence (Q7Z5P4 20-300): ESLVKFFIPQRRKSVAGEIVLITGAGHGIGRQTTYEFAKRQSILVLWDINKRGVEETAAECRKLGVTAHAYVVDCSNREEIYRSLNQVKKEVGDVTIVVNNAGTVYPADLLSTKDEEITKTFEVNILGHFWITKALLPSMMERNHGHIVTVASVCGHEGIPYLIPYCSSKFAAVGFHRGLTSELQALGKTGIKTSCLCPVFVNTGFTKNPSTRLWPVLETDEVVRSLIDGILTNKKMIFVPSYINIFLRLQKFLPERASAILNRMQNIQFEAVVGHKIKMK
Description: The fluorescence based Leukotriene B3 (LTB3) assay monitors the fluorescence of NADH, which is generated from NAD+ during the dehydrogenation of the substrate LTB3. The reactions were performed in a 384-well plates (Greiner; #655076) in a 20 μl reaction volume containing the following reagents (final concentrations): 25 μM LTB3 (Cayman; #20109); 3 mM NAD^+ (Sigma; #N0623); 125 nM HSD17B13 enzyme (in-house; E. coli expressed His-tagged, purified, soluble protein); 1 M potassium phosphate buffer, pH 7.4; and 1% DMSO. Reactions were initiated by co-addition of NAD+ and enzyme, and monitored for 1 hour at 26.5° C. Generation of NADH was measured as the fluorescence signal (Excitation at 340 nm and Emission at 445 nm) at 1 hour minus the baseline fluorescence at t=0. Fluorescence signals in the absence of LTB3 (negative control values), were subtracted from all values so that the results reflected substrate-dependent production of NADH. NADH standards were included to allow the conversion of relative fluorescence units into rates of enzyme activity. Enzyme activity in the presence of test compounds was expressed as a percentage of the uninhibited enzyme activity, and plotted versus inhibitor concentration. Non-linear regression was performed using a four-parameter logistic model and Microsoft Excel Solver® software. Ten concentrations of inhibitor were tested in duplicate (in the range of 30 μM-2.5 nM). Two independent concentration response assays were performed and the geometric mean is reported, =/−the SEM.

[2] = target: T1, HSD17B13 enzyme; test: LC/MS estrone detection assay (conversion of estradiol to estrone by HSD17B13); type: biochemical; settings: substrate 4 μM estradiol, 6 mM NAD+, 30 nM HSD17B13 enzyme, 2 hours at 26.5° C
Description: The liquid chromatography/mass spectrometry (LC/MS) estrone detection assay monitors the conversion of estradiol to estrone by HSD17B13. This assay was performed in a 96 wp format (Eppendorf deep well Plate 96/500) in an 80 μl reaction volume containing: 4 μM estradiol (E2; Cayman; Ser. No. 10/006,315); 6 mM NAD^+ (Sigma; #N0623), and 30 nM HSD17B13 enzyme (in-house; E. coli expressed His-tagged, purified, soluble protein), in a buffer containing 1M potassium phosphate buffer pH 7.4 and 0.5% vehicle (DMSO). Reactions were incubated for 2 hours at 26.5° C., and estradiol (E2) conversion to estrone (E1) was quantitated by LC-MS/MS based analyte detection for E1 using LCMS grade reagents. Reactions were terminated by the addition of two volumes of acetonitrile (MeCN; LCMS grade; CAS #75/05/8) containing deuterated (D4)-E1 as internal standard (Clear Synth; #CS-T-54273; 500 ng/mL final concentration). Samples were applied to pre-prepared Bond Elut-C18 extraction cartridges (3 mL; Agilent; Ser. No. 12/102,028), and washed and eluted in MeCN. Eluates were dried under nitrogen and re-suspended in 60% methanol (LCMS grade methanol; CAS #67/56/1) before submission for analysis. Standard curves for E1 were included for quantification. Analysis of samples was undertaken on a XBridge BEH C18 column (Waters; #186003033) using 0.1% Diethyl Amine in MeCN (mobile phase A; DEA CAS #109-89-7) and 0.1% Diethyl Amine in milli-Q water (mobile phase B) in a 3 min gradient up to 25% B. Analytes were detected in negative mode using MRM analysis, with E2 having a RT of 1.85 min and E1 having a RT of 2 min. Activity of the enzyme in the absence of NAD^+, was subtracted from samples to yield values for specific enzyme activity. Enzyme activity in the presence of test samples was expressed as a percentage of the uninhibited enzyme activity, and plotted versus inhibitor concentration. Non-linear regression was performed using the Morrison equation (see below) for tight binding inhibitors on GraphPad Prism software (GraphPad Software, La Jolla, Calif.). All assessments were undertaken in duplicate evaluations which were pooled during the extraction process and subsequently injected as duplicates for LC-MS/MS analysis. Y=Vo*(1−((((Et+X+Q)−(((Et+X+Q)^2)−4*Et*X)^0.5))/(2*Et))) Morrison equation:
Y=Activity in the presence of inhibitor; Vo=Activity in absence of inhibitor; Et=Total enzyme concentration; X=inhibitor concentration; and Q=(Ki*(1+(S/Km))), where Ki is the inhibition constant, Km is the Michaelis constant, and S is the substrate concentration.

SMILES	IC50 [1]	IC50 [2]
O=C(Nc1ccsc1C(=O)NCc1c[nH]c2ccccc12)c1ccc(O)c(Cl)c1 [Example 4, N-((1H-indol-3-yl)methyl)-3-(3-chloro-4-hydroxybenzamido)thiophene-2-carboxamide]	≤ 1000 nM	≤ 100 nM
CCNC(=O)c1sccc1NC(=O)c1ccc(O)c(Cl)c1 [Example 5, 3-(3-chloro-4-hydroxybenzamido)-N-ethylthiophene-2-carboxamide]	≤ 1000 nM	100 to 1000 nM
O=C(Nc1ccsc1C(=O)NC1COc2ccccc2C1)c1ccc(O)c(Cl)c1 (stereo not drawn) [Example 6, 3-(3-chloro-4-hydroxybenzamido)-N-(chroman-3-yl)thiophene-2-carboxamide]	≤ 1000 nM	≤ 100 nM
COc1ccncc1CCNC(=O)c1sccc1NC(=O)c1ccc(O)c(Cl)c1 [Example 7, 3-(3-chloro-4-hydroxybenzamido)-N-(2-(4-methoxypyridin-3-yl)ethyl)thiophene-2-carboxamide]	≤ 1000 nM	100 to 1000 nM
COc1ccccc1CNC(=O)c1sccc1NC(=O)c1ccc(O)c(Cl)c1 [Example 8, 3-(3-chloro-4-hydroxybenzamido)-N-(2-methoxybenzyl)thiophene-2-carboxamide]	≤ 1000 nM	≤ 100 nM
O=C(Nc1ccsc1C(=O)NCCc1ccccc1F)c1ccc(O)c(Cl)c1 [Example 9, 3-(3-chloro-4-hydroxybenzamido)-N-(2-fluorophenethyl)thiophene-2-carboxamide]	≤ 1000 nM	≤ 100 nM
COc1ccccc1CCNC(=O)c1sccc1NC(=O)c1ccncc1 [Example 10, N-(2-((2-methoxyphenethyl)carbamoyl)thiophen-3-yl)isonicotinamide]	> 10000 nM	> 10000 nM
COc1ccccc1CCNC(=O)c1sc2nccnc2c1NC(=O)c1ccc(O)c(Cl)c1 [Example 12, 7-(3-chloro-4-hydroxybenzamido)-N-(2-methoxyphenethyl)thieno[2,3-b]pyrazine-6-carboxamide]	1000 to 5000 nM	100 to 1000 nM
COc1ccccc1CCNC(=O)c1ccsc1NC(=O)c1ccc(O)c(Cl)c1 [Example 13, 2-(3-chloro-4-hydroxybenzamido)-N-(2-methoxyphenethyl)thiophene-3-carboxamide]	≤ 1000 nM	≤ 100 nM
COc1ccccc1CCNC(=O)c1c(NC(=O)c2ccc(O)c(Cl)c2)sc2c1CCCC2 [Example 14, 2-(3-chloro-4-hydroxybenzamido)-N-(2-methoxyphenethyl)-4,5,6,7-tetrahydrobenzo[b]thiophene-3-carboxamide]	1000 to 5000 nM	100 to 1000 nM
COc1ccccc1CCNC(=O)c1c(NC(=O)c2ccc(O)c(F)c2)sc(C)c1C [Example 16, 2-(3-fluoro-4-hydroxybenzamido)-N-(2-methoxyphenethyl)-4,5-dimethylthiophene-3-carboxamide]	≤ 1000 nM	≤ 100 nM
COc1ccccc1CCNC(=O)c1sc(Cl)cc1NC(=O)c1ccc(O)c(Cl)c1 [Example 17, 5-chloro-3-(3-chloro-4-hydroxybenzamido)-N-(2-methoxyphenethyl)thiophene-2-carboxamide]	≤ 1000 nM	≤ 100 nM

Other lines, results leading:

IC50 [1]	IC50 [2]	SMILES
≤ 1000 nM	≤ 100 nM	CC(C)(C)CCNC(=O)c1sccc1NC(=O)c1cc(F)c(O)c(F)c1 [Example 18, 3-(3,5-difluoro-4-hydroxybenzamido)-N-(3,3-dimethylbutyl)thiophene-2-carboxamide]
> 10000 nM	100 to 1000 nM	CC(C)(C)CCNC(=O)c1sc2cnccc2c1NC(=O)c1ccc(O)c(F)c1 [Example 19, N-(3,3-dimethylbutyl)-3-(3-fluoro-4-hydroxybenzamido)thieno[2,3-c]pyridine-2-carboxamide]
> 10000 nM	100 to 1000 nM	COc1ccccc1CCNC(=O)c1sccc1NC(=O)Cc1ccc(O)c(Cl)c1 [Example 20, 3-(2-(3-chloro-4-hydroxyphenyl)acetamido)-N-(2-methoxyphenethyl)thiophene-2-carboxamide]
> 10000 nM	1000 to 10000 nM	COc1ccccc1CCNC(=O)c1sccc1NC(=O)c1ccc(S(=O)(=O)NC(=O)c2ccccc2)c(Cl)c1 [Example 24, 3-(4-(N-benzoylsulfamoyl)-3-chlorobenzamido)-N-(2-methoxyphenethyl)thiophene-2-carboxamide]
> 10000 nM	1000 to 10000 nM	COc1ccccc1CCNC(=O)c1sccc1NC(=O)c1ccc(OC(F)(F)C(=O)O)c(Cl)c1 [Example 25, 2-(2-chloro-4-((2-((2-methoxyphenethyl)carbamoyl)thiophen-3-yl)carbamoyl)phenoxy)-2,2-difluoroacetic acid]
> 10000 nM	> 10000 nM	COc1ccccc1CCNC(=O)c1sccc1NC(=O)c1ccc(S(N)(=O)=O)c(Cl)c1 [Example 26, 3-(3-chloro-4-sulfamoylbenzamido)-N-(2-methoxyphenethyl)thiophene-2-carboxamide]
> 10000 nM	> 10000 nM	COc1ccccc1CCNC(=O)c1sccc1NC(=O)c1ccc(C(F)(F)C(=O)O)c(F)c1 [Example 27, 2,2-difluoro-2-(2-fluoro-4-((2-((2-methoxyphenethyl)carbamoyl)thiophen-3-yl)carbamoyl)phenyl)acetic acid]
> 10000 nM	> 10000 nM	COc1ccccc1CCNC(=O)c1sccc1NC(=O)c1ccc2[nH]nc(Cl)c2c1 [Example 28, 3-chloro-N-(2-((2-methoxyphenethyl)carbamoyl)thiophen-3-yl)-1H-indazole-5-carboxamide]
> 10000 nM	1000 to 10000 nM	COc1ccccc1CCNC(=O)c1sccc1NC(=O)c1ccc(N2CCC(C(=O)O)C2)c(Cl)c1 (stereo not drawn) [Example 29, 1-(2-chloro-4-((2-((2-methoxyphenethyl)carbamoyl)thiophen-3-yl)carbamoyl)phenyl)pyrrolidine-3-carboxylic acid]
≤ 1000 nM	≤ 100 nM	COc1ccccc1CCNC(=O)c1sccc1NC(=O)c1ccc(O)c(F)c1 [Example 30, 3-(3-fluoro-4-hydroxybenzamido)-N-(2-methoxyphenethyl)thiophene-2-carboxamide]
≤ 1000 nM	100 to 1000 nM	COc1ccccc1CCNC(=O)c1sc2ccccc2c1NC(=O)c1ccc(O)c(Cl)c1 [Example 31, 3-(3-chloro-4-hydroxybenzamido)-N-(2-methoxyphenethyl)benzo[b] thiophene-2-carboxamide]
> 10000 nM	≤ 100 nM	COc1ccccc1CCNC(=O)c1sccc1NC(=O)c1ccc(O)c(C(F)(F)F)c1 [Example 33, 3-(4-hydroxy-3-(trifluoromethyl)benzamido)-N-(2-methoxyphenethyl)thiophene-2-carboxamide]
